Laboratory results as given in patent US20170029841A1, “METHODS AND COMPOSITIONS FOR SELECTIVE REGULATION OF PROTEIN EXPRESSION” (priority 2015, published 2017).

System: maize tissue pools (tassel, ear, leaf, root, stem)
Assay: siRNA profiling microarray assay of mts-siRNA sequences across maize tissues
Details: for 01DKD2 V8-V9 Tassel relative signal value: germplasm 01DKD2, V8-V9 tassel; for 01DKD2 V10-V12 Tassel relative signal value: germplasm 01DKD2, V10-V12 tassel; for 01DKD2 Other Tissue relative signal value: germplasm 01DKD2, combined signals from other tissue; for LH244 V8-V9 Tassel relative signal value: germplasm LH244, V8-V9 tassel; for LH244 V10-V12 Tassel relative signal value: germplasm LH244, V10-V12 tassel; for LH244 Other Tissue relative signal value: germplasm LH244, combined signals from other tissue
Protocol: A siRNA profiling microarray assay was performed using μParaflo® Microfluidics chips provided by LC Sciences LLC (Houston, Tex., USA) with 1,200 sequences selected from the thousands of mts-siRNA sequences identified from the differential bioinformatic analysis. The microarray chips contained triplicate probes of the complementary sequence for each of the 1,200 mts-siRNA sequences. Total RNA was purified from 26 maize tissue pools (duplicate or triplicate tissue pools) from either LH244 (ATCC deposit number PTA-1173) or 01DKD2 (I294213) (ATCC deposit number PTA-7859) inbred plants. Each of the 26 RNA samples were hybridized with the microarray chips that contain probes for the 1,200 mts-siRNA. Hybridization images were collected using a GenePix® 4000B laser scanner (Molecular Devices, Sunnyvale, Calif.) and digitized using Array-Pro® Analyzer image analysis software (Media Cybernetics, Rockville, Md.). Relative signal values were derived by background subtraction and normalization. Differentially expressed signals were determined by t-test with p<0.05. From the microarray analysis, about 500 mts-siRNA from the 1,200 were identified as being highly tassel-specific.
Selected mts-siRNA sequences aligning to one of the six cDNA sequences were used for further microarray analysis to determine differential expression across maize tissues. Microarray analysis for mts-siRNA sequences of normalized signal values for V8-V9 tassel, V10-V12 tassel, or combined signals from the other tissue for maize germplasm LH244 and 01DKD2 is presented in Tables 3-10. […] Signal value results are measured as relative signal values and standard error (p<0.05) is represented by (STDR). […] The mts-siRNA sequence corresponds to the sense or antisense strand of the corresponding mts-siRNA target sequence in the cDNA sequence. The mts-siRNA sequence may have a single nucleotide, a two nucleotide, or a three nucleotide mismatch with the aligned portion of the cDNA sequence, and the mts-siRNA sequence may align to the sense strand or antisense strand of the cDNA sequence. The mts-siRNA sequences provided here are found across different maize germplasms.

| Substance | 01DKD2 V8-V9 Tassel relative signal value | 01DKD2 V10-V12 Tassel relative signal value | 01DKD2 Other Tissue relative signal value | LH244 V8-V9 Tassel relative signal value | LH244 V10-V12 Tassel relative signal value | LH244 Other Tissue relative signal value |
| --- | --- | --- | --- | --- | --- | --- |
| SEQ ID NO: 63: mts-siRNA sequence aligning to cDNA SEQ ID NO: 21 (TAGATCACTCGGGTCGCCACA; expressed or natural sequence) | 14.5 | 18 | 1.5 | 34.5 | 11.7 | 3.2 |
| SEQ ID NO: 64: mts-siRNA sequence aligning to cDNA SEQ ID NO: 21 (GCATATATGTGATGAAGACCG; expressed or natural sequence) | 13.5 | 9 | 1.3 | 23 | 13.7 | 1.8 |
| SEQ ID NO: 65: mts-siRNA sequence aligning to cDNA SEQ ID NO: 21 (CGAATTGATTCCACCCATTCC; expressed or natural sequence) | 444.5 | 454.5 | 12 | 811.5 | 260.3 | 5.8 |
| SEQ ID NO: 66: mts-siRNA sequence aligning to cDNA SEQ ID NO: 21 (TGGTCATACACTAGATAGGGC; expressed or natural sequence) | 61 | 55.5 | 2.8 | 199.5 | 48 | 1.9 |
| SEQ ID NO: 67: mts-siRNA sequence aligning to cDNA SEQ ID NO: 21 (CCTATCTAGTGTATGACCAAT; expressed or natural sequence) | 123.5 | 107 | 4.3 | 216 | 62 | 3.3 |
| SEQ ID NO: 68: mts-siRNA sequence aligning to cDNA SEQ ID NO: 21 (GAACAGTGATTTTATGAGCAA; expressed or natural sequence) | 98 | 96 | 2.5 | 265 | 85.3 | 5 |
| SEQ ID NO: 69: mts-siRNA sequence aligning to cDNA SEQ ID NO: 21 (GCTCATAAAATCACTGTTCAT; expressed or natural sequence) | 309.5 | 282.5 | 9.8 | 516 | 185 | 11.2 |
| SEQ ID NO: 70: mts-siRNA sequence aligning to cDNA SEQ ID NO: 22 (CATGCACTGGTGAGTCACTGTTG; expressed or natural sequence) | 3 | 873 | 4 | 56.5 | 694 | 1.8 |
| SEQ ID NO: 71: mts-siRNA sequence aligning to cDNA SEQ ID NO: 22 (AGCTATCGATTCCCTAAGTGCCA; expressed or natural sequence) | 46 | 1943.5 | 2.3 | 1125.5 | 2380 | 1.6 |
| SEQ ID NO: 72: mts-siRNA sequence aligning to cDNA SEQ ID NO: 22 (GGCCTCCCTTCCCTATGGTAGCC; expressed or natural sequence) | 332.5 | 530 | 233.3 | 323.5 | 325.7 | 1324.8 |
| SEQ ID NO: 73: mts-siRNA sequence aligning to cDNA SEQ ID NO: 22 (AAGCTATCGATTCCCTAAGTGCCA; expressed or natural sequence) | 37.5 | 1695.5 | 2 | 1058.5 | 2395.7 | 4.5 |
| SEQ ID NO: 74: mts-siRNA sequence aligning to cDNA SEQ ID NO: 22 (AGGCCTCCCTTCCCTATG; expressed or natural sequence) | 43.5 | 171 | 45.8 | 83.5 | 129 | 164.2 |
| SEQ ID NO: 75: mts-siRNA sequence aligning to cDNA SEQ ID NO: 22 (ACAGTGACTCACCAGTGCATGCAC; expressed or natural sequence) | 3 | 257 | 5 | 53 | 237.3 | 3.3 |
| SEQ ID NO: 76: mts-siRNA sequence aligning to cDNA SEQ ID NO: 22 (ACAGTGACTCACCAGTGCATG; expressed or natural sequence) | 2.5 | 276.5 | 4 | 55 | 252.3 | 5.7 |
| SEQ ID NO: 77: mts-siRNA sequence aligning to cDNA SEQ ID NO: 22 (AAGGCAAGAAGGTGCTTGTTGTC; expressed or natural sequence) | 0.5 | 225 | 2.5 | 180.5 | 302.7 | 4.1 |
| SEQ ID NO: 78: mts-siRNA sequence aligning to cDNA SEQ ID NO: 22 (GCATGCACTGGTGAGTCACTGTTG; expressed or natural sequence) | 3 | 715.5 | 4.5 | 47.5 | 642.7 | 1 |
